From US9278065B2, “Delivery systems for solubilising water-insoluble pharmaceutical active ingredients” (EMS S/A, priority 2007, dated 2016)

Assay: Particle size (Z-average) of the formulation mixed with water 1:50
Assay type: physicochemical
Method: The formulation according to present invention is prepared when the non-ionic surfactant mixture is thoroughly mixed with the solution of the active ingredient in the water-miscible organic solvent/co-solvent.
The present invention will now be illustrated by the following examples. It is understood, however, that such examples are provided for illustration only, and the invention is not intended to be limited by the examples. The formulation based on the system employed in the examples can be formed by any suitable method known in the art. In the examples the formulation was mixed with water at a ratio of 1:50 formulation: water to generate the system and measure the particle size formed in water. The particle size was measured by the method described in Pharmacopea Forum—2001 vol 27 (4) page 2724.

| Compound | increase of particle Z-average (10% tioconazole formulation omitting DEGEE, compared with complete formulation containing DEGEE, PEG Oleate, polyethoxylated castor oil) [%] | particle size of emulsion (10% tioconazole formulation omitting polyethoxylated castor oil, diluted 1:50 in water) [nm] | Z-average (0.5% tacrolimus in ethanol with DEGEE / PEG Oleate / polyethoxylated castor oil as per Table 3, diluted 1:50 in water) [nm] |
| --- | --- | --- | --- |
| Clc1ccc(C(Cn2ccnc2)OCc2ccsc2Cl)c(Cl)c1 (stereo not drawn) [Tioconazole] | 10 | 450 | – |
| C=CC[C@@H]1/C=C(\C)C[C@H](C)C[C@H](OC)[C@H]2O[C@@](O)(C(=O)C(=O)N3CCCC[C@H]3C(=O)O[C@H](/C(C)=C/[C@@H]3CC[C@@H](O)[C@H](OC)C3)[C@H](C)[C@@H](O)CC1=O)[C@H](C)C[C@@H]2OC [tacrolimus] | – | – | 32 |
